# Measurements from patent US20260364047A1, “METHODS OF SWITCHING NEUROPSYCHIATRIC MEDICATIONS USING ULOTARONT” (Sumitomo Pharma America, Inc., priority 2022, published 2026).
# Entries after “also recorded” stand apart in the source; their conditions may differ.
# What was measured:
# [1] = Liver triglycerides of rats previously treated with olanzapine; details: 3 mg/kg po; prior olanzapine 3 mg/kg po
# [2] = Changes in body weights of rats previously treated with olanzapine
# [3] = Daily food intake of rats previously treated with olanzapine; details: 3 mg/kg/day po
# [4] = Week 1 (Day 1-8), 3 mg/kg po, high-fat diet
# [5] = Week 2 (Day 8-14), 3 mg/kg po, prior olanzapine 3 mg/kg po
structure (smiles),measurement,setting,value
"Cc1cc2c(s1)Nc1ccccc1N=C2N1CCN(C)CC1 [Olanzapine, olanzapine]","Liver triglycerides (μmol total), % vs Vehicle (A)",[1],100.4%
same,"Liver triglycerides (μmol/g), % vs Vehicle (A)",[1],100.0%
same,"Liver triglycerides total, Mean",[1],348 μmol total
same,"Liver triglycerides, Mean",[1],37.1 µmol/g
same,"Increase in body weight, previously shown in-house","[2]; 3 mg/kg po, this model, earlier in-house experiments",4-6%
same,Body weight compared to vehicle treated rats (in words),[2]; 3 mg/kg/day po,An increase in body weight; also recorded: significantly increased body weight
same,Time to initial effects on body weight and food intake,"[2]; 3 mg/kg/day po, as early as, following dosing",2 to 3 days
same,"Changes in body weights, Difference vs Vehicle (A)",[2]; [4],13.07 g
same,"Changes in body weights, Mean",[2]; [4],25.48 g
same,"Changes in body weights, Difference vs Vehicle (A)",[2]; [5],7.55 g
same,"Changes in body weights, Mean",[2]; [5],16.70 g
same,Food intake compared to vehicle treated rats (in words),[3],significantly increased
